In patent publication US20070128217A1 (priority 2003, published 2007):

Experiments:
[1] = system: antibodies in sera from SARS patients (sera 1a, 1b, 2, 6, 37, 62, London, SARS-yellow, SARS-green); format: binding, human; parameters: Binding of serum 6 to linear peptides of protein X1 of SARS-CoV Urbani / Binding of serum 37 to linear peptides of protein X1 of SARS-CoV Urbani / Binding of serum 6 to looped/cyclic peptide (PEPSCAN-ELISA) / Binding of serum 37 to looped/cyclic peptide (PEPSCAN-ELISA) / Binding of serum 37 to looped/cyclic peptides of protein X1 of SARS-CoV Urbani / Binding of serum 6 to linear peptides of protein X2 / Binding of serum 37 to linear peptides of protein X2 / Binding of serum 37 to looped/cyclic peptides of protein X2 of SARS-CoV Urbani / Binding of serum 6 to linear peptides of protein M of SARS-CoV Urbani / Binding of serum 37 to linear peptides of protein M of SARS-CoV Urbani / Binding of serum 6 to looped/cyclic peptides of protein M of SARS-CoV Urbani / Binding of serum 37 to looped/cyclic peptides of protein M of SARS-CoV Urbani / Binding of serum 6 to linear peptides of protein X3 of SARS-CoV Urbani / Binding of serum 37 to linear peptides of protein X3 of SARS-CoV Urbani / Binding of serum 37 to looped/cyclic peptides of protein X3 of SARS-CoV Urbani / Binding of serum 6 to linear peptides of protein X4 of SARS-CoV Urbani / Binding of serum 37 to linear peptides of protein X4 of SARS-CoV Urbani / Binding of serum 37 to looped/cyclic peptides of protein X4 of SARS-CoV Urbani / Binding of serum 6 to linear peptides of protein X5 of SARS-CoV Urbani / Binding of serum 37 to linear peptides of protein X5 of SARS-CoV Urbani / Binding of serum 37 to looped/cyclic peptides of protein X5 of SARS-CoV Urbani / Binding of serum 6 to linear peptides of protein N of SARS-CoV Urbani / Binding of serum 37 to linear peptides of protein N of SARS-CoV Urbani / Binding of serum 6 to linear peptide (PEPSCAN-ELISA) / Binding of serum 1a to looped/cyclic peptides of protein N of SARS-CoV Urbani / Binding of serum 1b to looped/cyclic peptides of protein N of SARS-CoV Urbani / Binding of serum 2 to looped/cyclic peptides of protein N of SARS-CoV Urbani / Binding of serum 6 to looped/cyclic peptides of protein N of SARS-CoV Urbani / Binding of serum 37 to looped/cyclic peptides of protein N of SARS-CoV Urbani / Binding of serum 62 to looped/cyclic peptides of protein N of SARS-CoV Urbani / Binding of serum London to looped/cyclic peptides of protein N of SARS-CoV Urbani / Binding of serum SARS-green to looped/cyclic peptides of protein N of SARS-CoV Urbani: unit not given here
[2] = system: control sera (pooled serum of ten healthy LUMC hospital workers; commercial negative donor pooled serum from the Dutch bloodbank); format: binding, human; parameters: Binding of Control serum LUMC to linear peptides / Binding of Control serum Blood-bank to linear peptides / Binding of Control serum LUMC to looped peptides / Binding of Control Serum Blood-Bank to Looped peptides / Binding of Control serum LUMC to linear peptides of the protein M of SARS-CoV Urbani / Binding of Control serum Blood-bank to linear peptides of the protein M of SARS-CoV Urbani / Binding of Control serum LUMC to looped peptides of the protein M of SARS-CoV Urbani / Binding of Control Serum Blood-Bank to Looped peptides of the protein M of SARS-CoV Urbani: unit not given here
[3] = system: rabbit serum obtained by immunizing a rabbit with the SARS-CoV strain Frankfurt 1; format: binding; parameters: Binding of a rabbit serum to linear peptides / Binding of a rabbit serum to looped peptides / Rabbit serum linear peptides / Rabbit serum looped peptides / Binding of a rabbit serum to linear peptides of protein N of SARS-CoV Urbani (Rabbit serum linear peptides) / Binding of a rabbit serum to looped/cyclic peptides of protein N of SARS-CoV Urbani (Rabbit serum looped peptides): unit not given here
[4] = system: recombinant human anti-SARS-CoV antibody 03-018; format: binding; parameters: Binding of antibody 03-018 to linear peptides of the N protein of SARS-CoV Urbani / Binding of antibody 03-018 to looped/cyclic peptides of the N protein of SARS-CoV Urbani: unit not given here

Sequence	Binding of serum 1a to linear peptides of protein N of SARS-CoV Urbani [1]	Binding of serum 1a to looped/cyclic peptides of protein N of SARS-CoV Urbani [1]	Binding of serum 1b to linear peptides of protein N of SARS-CoV Urbani [1]	Binding of serum 1b to looped/cyclic peptides of protein N of SARS-CoV Urbani [1]	Binding of serum 2 to linear peptides of protein N of SARS-CoV Urbani [1]	Binding of serum 2 to looped/cyclic peptides of protein N of SARS-CoV Urbani [1]	Binding of serum 6 to linear peptides of protein N of SARS-CoV Urbani [1]	Binding of serum 6 to looped/cyclic peptides of protein N of SARS-CoV Urbani [1]	Binding of serum 37 to linear peptides of protein N of SARS-CoV Urbani [1]	Binding of serum 37 to looped/cyclic peptides of protein N of SARS-CoV Urbani [1]	Binding of serum 62 to linear peptides of protein N of SARS-CoV Urbani [1]	Binding of serum 62 to looped/cyclic peptides of protein N of SARS-CoV Urbani [1]	Binding of serum London to linear peptides of protein N of SARS-CoV Urbani [1]	Binding of serum London to looped/cyclic peptides of protein N of SARS-CoV Urbani [1]	Binding of serum SARS-green to linear peptides of protein N of SARS-CoV Urbani [1]	Binding of serum SARS-green to looped/cyclic peptides of protein N of SARS-CoV Urbani [1]	Binding of serum SARS-yellow to linear peptides of protein N of SARS-CoV Urbani [1]	Binding of serum SARS-yellow to looped/cyclic peptides of protein N of SARS-CoV Urbani [1]	Binding of antibody 03-018 to linear peptides of the N protein of SARS-CoV Urbani [4]	Binding of antibody 03-018 to looped/cyclic peptides of the N protein of SARS-CoV Urbani [4]	other results
NTPKDHIGTRNPNNN	0.3	0.4	0.1	0.3	0.3	0.4	0.2	0.3	0.8	0.6	0.7	0.3	0.4	0.4	0.4	0.4	0.6	0.4	0.1	0.2	Binding of Control Serum Blood-Bank to Looped peptides [2]: 0.5; Binding of Control serum Blood-bank to linear peptides [2]: 0.8; Binding of Control serum LUMC to linear peptides [2]: 0.7; Binding of Control serum LUMC to looped peptides [2]: 0.6; Binding of a rabbit serum to linear peptides of protein N of SARS-CoV Urbani (Rabbit serum linear peptides) [3]: 0.1; Binding of a rabbit serum to looped/cyclic peptides of protein N of SARS-CoV Urbani (Rabbit serum looped peptides) [3]: 0.1
NVILLNKHIDAYKTF	0.2	0.5	0.1	0.3	0.2	0.4	0.1	0.3	0.7	0.7	0.6	0.7	0.5	0.9	0.3	0.3	0.6	0.7	0.1	0.2	Control Serum Blood-Bank Looped peptides [2]: 0.8; Control serum Blood-bank linear peptides [2]: 0.7; Control serum LUMC linear peptides [2]: 0.7; Control serum LUMC looped peptides [2]: 0.7; Binding of a rabbit serum to linear peptides of protein N of SARS-CoV Urbani (Rabbit serum linear peptides) [3]: 0.2; Binding of a rabbit serum to looped/cyclic peptides of protein N of SARS-CoV Urbani (Rabbit serum looped peptides) [3]: 0.6
NVTQAFGRRGPEQTQ		0.3		0.2		0.3		0.2		0.5		0.4		0.4		0.3		0.3	0.1	0.2	Binding of serum 1a to linear peptide (PEPSCAN-ELISA) [1]: 0.2; Binding of serum 1b to linear peptide (PEPSCAN-ELISA) [1]: 0.1; Binding of serum 2 to linear peptide (PEPSCAN-ELISA) [1]: 0.2; Binding of serum 6 to linear peptide (PEPSCAN-ELISA) [1]: 0.2; Binding of serum 37 to linear peptide (PEPSCAN-ELISA) [1]: 0.6; Binding of serum 62 to linear peptide (PEPSCAN-ELISA) [1]: 0.7; Binding of serum London to linear peptide (PEPSCAN-ELISA) [1]: 0.5; Binding of serum SARS-green to linear peptide (PEPSCAN-ELISA) [1]: 0.5; Binding of serum SARS-yellow to linear peptide (PEPSCAN-ELISA) [1]: 0.6; Binding of Control Serum Blood-Bank to Looped peptides [2]: 0.5; Binding of Control serum Blood-bank to linear peptides [2]: 0.7; Binding of Control serum LUMC to linear peptides [2]: 0.7; Binding of Control serum LUMC to looped peptides [2]: 0.5; Recognition of the peptide by the rabbit serum [3]: recognized
PINTNSGPDDQIGYY	0.2	0.4	0.2	0.4	0.2	0.4	0.2	0.2	0.9	0.7	0.7	0.5	0.4	0.4	0.3	0.8	0.6	0.5	0.1	0.2	Binding of Control Serum Blood-Bank to Looped peptides [2]: 0.5; Binding of Control serum Blood-bank to linear peptides [2]: 0.7; Binding of Control serum LUMC to linear peptides [2]: 0.7; Binding of Control serum LUMC to looped peptides [2]: 0.6; Binding of a rabbit serum to linear peptides of protein N of SARS-CoV Urbani (Rabbit serum linear peptides) [3]: 0.1; Binding of a rabbit serum to looped/cyclic peptides of protein N of SARS-CoV Urbani (Rabbit serum looped peptides) [3]: 0.4
